Laboratory results as given in patent US5317026A, “Acetamide derivative and application thereof” (Snow Brand Milk Products Co., Ltd., priority 1992, dated 1994).

Assays:
[1] = system: water immersion restrained stress induced ulcer; assay: Water immersion restrained stress induced model; format: in vivo, Wister male rats; details: for Suppression / Ulcer index: water immersion stress 7 hours; for Ulcer index: control 10.3 ± 4.5; for ED50: po, rat, per os, read-out: ED50 values in rat ulcer models, water immersion restrained stress induced model; for suppression of ulcers induced by the water dipping stress (in words): rats
Procedure: Experiments were carried out to investigate the pharmacological activity of Compound RT using ulcer models in Wister male rats. […] Cetraxate and Roxatidine, each suspended in 0.5% carboxymethyl cellulose (CMC), were administered to the rats using a per os probe, in an amount of 0.4 ml/100 g. 10 to 20 minutes after the administration, the animals were placed in an stress cage (manufactured by Natsume Manufacturing Co.) and dipped into water in a thermostat water bath at 21° C. to a depth of their processus xiphoideus to give a stress. After 7 hours, rats were taken out from the cage and sacrificed to cut out their stomach. 10 ml of a 2% formalin solution was charged into each stomach and the stomach was fixed in the solution for 10 minutes. After fixing, the stomach was opened along the greater curvature, and its mucosal surface was roughly washed with water. […] The total of such length (mm) in each animal was taken as an index for the ulcer production. The ulcer suppression rate (%) was determined based on the index applying the following formula. [(Ulcer index for the control)-(Ulcer index for the tested animal)]/(Ulcer index for the control)×100 (3) In order to more clearly identify the activity of Compound RT, both Roxatidine and Cetraxate hydrochloride were administered altogether.

[2] = system: hydrochloric acid-ethanol induced ulcer; assay: Hydrochloric acid-ethanol induced ulcer; format: in vivo, Wister male rats; details: for Suppression / Ulcer index: 60% ethanol containing 150 mM HCl, 1 hour; for Ulcer index: control 41.0 ± 10.9; for ED50: po, rat, per os, read-out: ED50 values in rat ulcer models, hydrochloric acid-ethanol induced ulcer; for suppression of ulcers induced by hydrochloric acid-ethanol (in words): rats
Procedure: Experiments were carried out to investigate the pharmacological activity of Compound RT using ulcer models in Wister male rats. Comparative tests were performed using commercial antiulcer drugs; Cetraxate (trade mark) and Roxatidine (trade mark), each having the following chemical structure. [drawing 11] [(Ulcer index for the control)-(Ulcer index for the tested animal)]/(Ulcer index for the control)×100 Groups of Wister male rats weighing 200-230 g, each group consisting of four rats, were fasted for 24 hours and subjected to the experiment. Cetraxate and Roxatidine, each suspended in 0.5% CMC, were administered to the rats using a per os probe, in an amount of 0.4 ml/100 g. […] After 1 hour, rats were sacrificed to cut out their stomach. 10 ml of a 2% formalin solution was charged into each stomach and the stomach was fixed in the solution for 10 minutes. After fixing, the stomach was opened along the greater curvature, and its mucosal surface was roughly washed with water. […] The total of such length (mm) in each animal was taken as an index for the ulcer production. The ulcer suppression rate (%) was determined in the same manner as above. (3) In order to more clearly identify the activity of Compound RT, both Roxatidine and Cetraxate hydrochloride were administered altogether.

[3] = water immersion model, than Cetraxate and Roxatidine
[4] = hydrochloric acid-ethanol model, than Cetraxate and Roxatidine

Row | Compound | Suppression ([1]; 25 mg/kg per os) [%] | Ulcer index ([1]; 25 mg/kg per os) [mm] | ED50 [1] [mg/kg] | Suppression ([2]; 40 mg/kg per os) [%] | Ulcer index ([2]; 40 mg/kg per os) [mm] | ED50 [2] [mg/kg] | Suppression ([1]; 36 mg/kg per os) [%] | Ulcer index ([1]; 36 mg/kg per os) [mm] | suppression of ulcers induced by the water dipping stress (in words) [1] | effect on the suppression of the acute gastroduodenal ulcer compared with combined use of the two comparative drugs (in words) ([1]; versus combined use of the two comparative drugs) | rate of suppression compared with Cetraxate and Roxatidine (in words) [1, 3] | ulcer index compared with Cetraxate and Roxatidine (in words) [1, 3] | Suppression ([2]; 58 mg/kg per os) [%] | Ulcer index ([2]; 58 mg/kg per os) [mm] | rate of suppression compared with Cetraxate and Roxatidine (in words) [2, 4] | ulcer index compared with Cetraxate and Roxatidine (in words) [2, 4] | suppression of ulcers induced by hydrochloric acid-ethanol (in words) [2] | activity against the hydrochloric acid-ethanol induced ulcer compared with combined Roxatidine and Cetraxate hydrochloride (in words) ([2]; versus Roxatidine and Cetraxate hydrochloride administered altogether)
1 | O=C(CO)NCCCOc1cccc(CN2CCCCC2)c1 [Roxatidine, N-[3-(3-piperidinomethylphenoxy)propyl]hydroxyacetamide, reference compound] | 75.7 | 2.5 ± 1.6 | 25 | 64.2 | 14.7 ± 9.9 | 40 | – | – | – | – | – | – | – | – | – | – | – | –
2 | NC[C@H]1CC[C@H](C(=O)Oc2ccc(CCC(=O)O)cc2)CC1 [Cetraxate, reference compound] | 41.7 | 6.0 ± 3.3 | 200 | 12.5 | 35.9 ± 14.7 | 60 | – | – | – | – | – | – | – | – | – | – | – | –
3 | NC[C@H]1CC[C@H](C(=O)OCC(=O)NCCCOc2cccc(CN3CCCCC3)c2)CC1 [Compound RT, 2-(trans-p-aminomethylcyclohexanecarboxy)-N-{3-[3-(1-piperidinomethyl)phenoxy]propyl}acetamide] | – | – | – | – | – | – | 93.2 | 0.7 ± 0.5 | effectively suppress the ulcers | remarkably greater effect | higher rate of suppression | lower ulcer index | 87.6 | 5.1 ± 5.5 | higher rate of suppression | lower ulcer index | effectively suppress the ulcers | almost the same as the case where both Roxatidine and Cetraxate hydrochloride were administered altogether
4 | O=C(COC(=O)[C@H]1CC[C@H](CNC(=O)OCc2ccccc2)CC1)NCCCOc1cccc(CN2CCCCC2)c1 [Compound RTP, 2-(N-carbobenzoxy-trans-p-aminomethylhexanecarboxy)-N-{3-[3-(1-piperidinomethyl)-phenoxy]propyl}acetamide] | – | – | – | – | – | – | – | – | effectively suppress the ulcers | – | – | – | – | – | – | – | effectively suppress the ulcers | –
